Our source for the TGI values is PubChem BioAssay (NCI).

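Grown in 96-well plates, cells were treated for 48 hours with each compound at five concentrations. Insufficient inhibition: endpoint recorded as highest concentration tested. TGI: total growth inhibition.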

Some test systems named below: SF-268 CNS; SNB-75 CNS; RPMI-8226 leukemia; OVCAR-3 ovarian; SNB-19 CNS; U251 CNS; EKVX NSCLC; UACC-257 melanoma; NCI-H226 lung; A498 renal; MDA-MB-435; IGROV1 ovarian; HOP-92 NSCLC; MDA-N; SK-MEL-5 melanoma; DU-145 prostate; OVCAR-5 ovarian; UACC-62 melanoma; LOX IMVI melanoma.
Assay in all cases: NCI-60 cell line screen, 48 h

As to `COc1ccc(N=CN(C)C)c(C)c1`, the TGI is over 100 µM with SF-268 CNS; 63.9 µM in the experiment on SNB-75 CNS; over 100 µM in the experiment with RPMI-8226 leukemia; 13.1 µM in the experiment with OVCAR-3 ovarian; over 100 µM with SNB-19 CNS; 72.5 µM in the experiment with U251 CNS. The TGI is over 100 µM with EKVX NSCLC; 9.95 µM in the experiment on UACC-257 melanoma; 64.5 µM in the experiment with NCI-H226 lung; 60.5 µM with A498 renal; 93.3 µM in the experiment on MDA-MB-435; over 100 µM in the experiment on IGROV1 ovarian. The TGI in the experiment with HOP-92 NSCLC is 36.3 µM; in the experiment with MDA-N, over 100 µM; in the experiment on SK-MEL-5 melanoma, 12.5 µM; with DU-145 prostate, 82 µM; in the experiment with OVCAR-5 ovarian it was over 100 µM; with UACC-62 melanoma, 42.6 µM. Further, the TGI in the experiment on LOX IMVI melanoma was 15.2 µM.
As for `C=CCC1C(=O)Nc2cccc3ncn(c23)C1=O` (stereo not drawn), the TGI in the experiment on SF-268 CNS, in the experiment with SNB-75 CNS, in the experiment on RPMI-8226 leukemia, in the experiment on OVCAR-3 ovarian, in the experiment with SNB-19 CNS and in the experiment on U251 CNS was over 100 µM in each case. Further, the TGI in the experiment with EKVX NSCLC, with UACC-257 melanoma, with NCI-H226 lung, in the experiment on A498 renal, with MDA-MB-435 and with IGROV1 ovarian was over 100 µM throughout. The TGI with HOP-92 NSCLC, in the experiment with MDA-N, in the experiment on SK-MEL-5 melanoma, with DU-145 prostate, with OVCAR-5 ovarian and with UACC-62 melanoma was over 100 µM in each case.
For `CC[C@H]1C=CCC[C@@]2(C[C@@H]3CC[C@H]4[C@H](C(=O)OCCCCCCCCCCCCCCCC(=O)N(CCCN)C[C@@H](O)CCN)[C@]5(CCC[C@@H](C)O5)NC(=[N+]34)N2)O1`, the TGI in the experiment with SF-268 CNS was 3.46 µM; in the experiment with RPMI-8226 leukemia, 0.833 µM; in the experiment with OVCAR-3 ovarian, 3.02 µM; with SNB-19 CNS it was 2.93 µM; in the experiment on U251 CNS, 1.44 µM; in the experiment on EKVX NSCLC it was 2.66 µM. Besides, the TGI was determined as 2.02 µM in the experiment with UACC-257 melanoma; 3.32 µM in the experiment with NCI-H226 lung; 3.09 µM with A498 renal; 1.2 µM with MDA-MB-435; 2.02 µM in the experiment with IGROV1 ovarian; 1.45 µM in the experiment on HOP-92 NSCLC. Besides, the TGI was 1.51 µM in the experiment on MDA-N; 1.31 µM with SK-MEL-5 melanoma; 2.3 µM in the experiment on DU-145 prostate; 1.78 µM in the experiment with OVCAR-5 ovarian; 0.412 µM in the experiment on UACC-62 melanoma; 1.38 µM with LOX IMVI melanoma.
With `CC(C)NC(=O)OCc1c(COC(=O)NC(C)C)c(-c2ccc[n+](COC(=O)C(C)(C)C)c2)n2c1CCC2`, the TGI in the experiment on SF-268 CNS, with SNB-75 CNS, with RPMI-8226 leukemia, in the experiment with OVCAR-3 ovarian, with SNB-19 CNS and in the experiment with U251 CNS was over 100 µM throughout. For the same compound, the TGI was over 100 µM in the experiment on EKVX NSCLC; over 100 µM in the experiment on UACC-257 melanoma; over 100 µM in the experiment with NCI-H226 lung; over 91.9 µM in the experiment on A498 renal; over 100 µM with MDA-MB-435; over 100 µM in the experiment on IGROV1 ovarian. Also, the TGI with HOP-92 NSCLC, with MDA-N, in the experiment with SK-MEL-5 melanoma, in the experiment on DU-145 prostate, in the experiment with OVCAR-5 ovarian and in the experiment on UACC-62 melanoma was over 100 µM throughout. In the experiment with LOX IMVI melanoma, this compound gave a TGI of over 100 µM.
Regarding `COC(=O)c1ccc(NCC2=CC(=O)C=CC2=O)cc1`, the TGI with SF-268 CNS is 28.8 µM; in the experiment with SNB-75 CNS it was 30.3 µM; with RPMI-8226 leukemia it was 7.22 µM; with SNB-19 CNS, 28.2 µM; with U251 CNS, 28.7 µM; in the experiment with EKVX NSCLC, 28.2 µM. Further, the TGI with UACC-257 melanoma was found to be 25.7 µM; in the experiment on NCI-H226 lung, 37.2 µM; in the experiment with A498 renal it was 27.6 µM; in the experiment with MDA-MB-435, 24.3 µM; with IGROV1 ovarian, 34.1 µM; in the experiment with HOP-92 NSCLC, 10.5 µM. Also, the TGI in the experiment with MDA-N is 24.2 µM; with SK-MEL-5 melanoma, 32.5 µM; in the experiment on DU-145 prostate, 28.8 µM; in the experiment on OVCAR-5 ovarian, 32.3 µM; in the experiment on UACC-62 melanoma, 29 µM; in the experiment on LOX IMVI melanoma it was 17.8 µM.
On to `Cc1ccc(C2SCC(=O)N2NC(=O)c2ccncc2)s1` (stereo not drawn), for which the TGI in the experiment on SF-268 CNS, in the experiment on RPMI-8226 leukemia, with OVCAR-3 ovarian, with SNB-19 CNS, with U251 CNS and in the experiment with EKVX NSCLC was over 100 µM in each case. For the same compound, the TGI in the experiment on UACC-257 melanoma, in the experiment with NCI-H226 lung, in the experiment with A498 renal, in the experiment with MDA-MB-435, in the experiment on IGROV1 ovarian and in the experiment with HOP-92 NSCLC was over 100 µM throughout. The TGI in the experiment with MDA-N, in the experiment with SK-MEL-5 melanoma, in the experiment on DU-145 prostate, in the experiment on OVCAR-5 ovarian, in the experiment on UACC-62 melanoma and in the experiment on LOX IMVI melanoma was over 100 µM each time.
Regarding `Cc1nnc2n1N=C(c1cc(F)c(Cl)cc1Cl)/C(=C/c1ccc3c(c1)OCO3)S2`, the TGI was over 100 µM in the experiment on SF-268 CNS; over 100 µM with RPMI-8226 leukemia; over 100 µM with OVCAR-3 ovarian; over 100 µM in the experiment with SNB-19 CNS; over 100 µM in the experiment with U251 CNS; 84.3 µM in the experiment on EKVX NSCLC. Further, the TGI in the experiment on UACC-257 melanoma, in the experiment with NCI-H226 lung, with A498 renal, in the experiment with MDA-MB-435, in the experiment on IGROV1 ovarian and in the experiment on HOP-92 NSCLC was over 100 µM throughout. Besides, the TGI in the experiment on MDA-N, in the experiment on SK-MEL-5 melanoma, in the experiment on DU-145 prostate, with OVCAR-5 ovarian, in the experiment with UACC-62 melanoma and with LOX IMVI melanoma was over 100 µM in each case.
